Like-named read-outs stand apart in the source and are kept apart here.
How the values were obtained:
Experiment in all cases: SelectScreen Kinase Profiling, single point inhibition and IC50 for off-target kinases
Assay type in all cases: biochemical
off-target kinases [1] = molecular target: T1, off-target kinases (Homo sapiens, UniProt O94768); settings: STK17B (DRAK2), LanthaScreen Binding
T1 sequence (O94768 1-372): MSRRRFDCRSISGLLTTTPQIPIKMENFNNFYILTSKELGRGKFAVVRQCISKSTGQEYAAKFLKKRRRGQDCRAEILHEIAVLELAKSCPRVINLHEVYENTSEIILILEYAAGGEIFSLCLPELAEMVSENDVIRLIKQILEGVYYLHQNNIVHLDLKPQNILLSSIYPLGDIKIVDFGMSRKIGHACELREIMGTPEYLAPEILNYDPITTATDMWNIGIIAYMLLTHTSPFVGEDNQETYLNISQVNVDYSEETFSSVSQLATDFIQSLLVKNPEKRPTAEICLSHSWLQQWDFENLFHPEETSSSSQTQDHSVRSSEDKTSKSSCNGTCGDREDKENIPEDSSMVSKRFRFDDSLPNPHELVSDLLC

off-target kinases [2] = molecular target: off-target kinases (Homo sapiens, UniProt P30530); settings: AXL, ZLYTE, ATP Km app
Sequence of off-target kinases (Homo sapiens, UniProt P30530) (P30530 26-894): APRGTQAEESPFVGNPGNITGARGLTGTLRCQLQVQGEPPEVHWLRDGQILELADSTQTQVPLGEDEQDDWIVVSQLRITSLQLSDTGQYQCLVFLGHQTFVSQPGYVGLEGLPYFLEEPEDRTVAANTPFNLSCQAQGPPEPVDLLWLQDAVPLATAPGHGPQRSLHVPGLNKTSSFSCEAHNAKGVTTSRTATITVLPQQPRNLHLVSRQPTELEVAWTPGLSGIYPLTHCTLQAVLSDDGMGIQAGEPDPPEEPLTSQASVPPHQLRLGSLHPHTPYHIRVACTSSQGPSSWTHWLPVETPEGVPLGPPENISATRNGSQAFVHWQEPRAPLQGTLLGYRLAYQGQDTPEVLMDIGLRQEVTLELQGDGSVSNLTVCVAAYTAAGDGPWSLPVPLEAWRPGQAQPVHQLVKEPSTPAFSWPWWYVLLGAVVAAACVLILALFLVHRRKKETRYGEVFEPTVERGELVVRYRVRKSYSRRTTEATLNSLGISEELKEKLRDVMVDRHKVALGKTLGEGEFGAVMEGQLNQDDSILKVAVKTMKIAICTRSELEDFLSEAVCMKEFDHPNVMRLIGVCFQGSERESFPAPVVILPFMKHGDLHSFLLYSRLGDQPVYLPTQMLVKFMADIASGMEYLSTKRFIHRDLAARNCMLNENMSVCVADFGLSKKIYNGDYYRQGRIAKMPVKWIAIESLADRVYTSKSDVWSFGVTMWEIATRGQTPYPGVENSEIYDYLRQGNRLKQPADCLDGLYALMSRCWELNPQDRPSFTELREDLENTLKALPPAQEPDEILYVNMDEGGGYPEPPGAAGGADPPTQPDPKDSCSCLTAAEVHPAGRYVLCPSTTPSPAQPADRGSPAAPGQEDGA

off-target kinases [3] = molecular target: off-target kinases (Homo sapiens, UniProt P42345); settings: FRAP1 (mTOR), ZLYTE, ATP Km app
off-target kinases [4] = molecular target: T2, off-target kinases (Homo sapiens, UniProt Q16832, N456S); settings: DDR2 N456S, mutant y, LanthaScreen Binding
T2 sequence (Q16832 22-855 N456S): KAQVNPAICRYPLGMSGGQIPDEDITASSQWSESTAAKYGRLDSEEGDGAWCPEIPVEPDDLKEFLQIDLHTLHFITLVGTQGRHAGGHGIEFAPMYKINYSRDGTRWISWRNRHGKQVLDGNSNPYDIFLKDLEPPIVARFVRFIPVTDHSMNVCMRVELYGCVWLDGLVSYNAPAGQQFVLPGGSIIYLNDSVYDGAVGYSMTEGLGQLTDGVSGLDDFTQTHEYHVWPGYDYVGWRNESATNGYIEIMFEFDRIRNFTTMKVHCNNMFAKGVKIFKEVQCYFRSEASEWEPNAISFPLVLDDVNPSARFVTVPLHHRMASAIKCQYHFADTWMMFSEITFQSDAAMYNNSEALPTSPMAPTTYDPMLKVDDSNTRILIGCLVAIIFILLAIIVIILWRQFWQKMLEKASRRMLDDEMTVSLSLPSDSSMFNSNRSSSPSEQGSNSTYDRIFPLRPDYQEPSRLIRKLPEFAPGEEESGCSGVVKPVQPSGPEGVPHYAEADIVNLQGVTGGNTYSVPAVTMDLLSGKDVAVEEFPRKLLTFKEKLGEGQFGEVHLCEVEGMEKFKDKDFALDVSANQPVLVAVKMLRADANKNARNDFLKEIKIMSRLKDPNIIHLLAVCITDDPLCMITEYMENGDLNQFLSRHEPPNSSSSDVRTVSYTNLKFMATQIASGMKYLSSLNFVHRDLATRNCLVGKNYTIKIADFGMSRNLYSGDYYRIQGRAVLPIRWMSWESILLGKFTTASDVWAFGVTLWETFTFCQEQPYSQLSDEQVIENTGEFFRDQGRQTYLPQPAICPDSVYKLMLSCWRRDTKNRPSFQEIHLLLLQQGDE

Work on `N#Cc1cc(-c2ncnc(Nc3ccc(N4CCN(C5COC5)CC4)cc3)n2)ccc1OC1CCOCC1` [Compound 1, 5-(4-((4-(4-(oxetan-3-yl)piperazin-1-yl)phenyl)amino)-1,3,5-triazin-2-yl)-2-((tetrahydro-2H-pyran-4-yl)oxy)benzonitrile] yielded an inhibition (off-target kinases [1]; read-out: % Inhibition 1) of 94%, an inhibition (off-target kinases [1]; read-out: % Inhibition 2) of 84% and an inhibition (off-target kinases [1]; read-out: % Inhibition Avg) of 89%. For the same compound, the inhibition (off-target kinases [2]; read-out: % Inhibition 1) was 22%, the inhibition (off-target kinases [2]; read-out: % Inhibition 2) was 25% and the inhibition (off-target kinases [2]; read-out: % Inhibition Avg) was 24%. The inhibition (off-target kinases [3]; read-out: % Inhibition 1) was 2%, the inhibition (off-target kinases [3]; read-out: % Inhibition 2) was 12% and the inhibition (off-target kinases [3]; read-out: % Inhibition Avg) was 7%. For the same compound, the inhibition (off-target kinases [4]; read-out: % Inhibition 1) was 33%, the inhibition (off-target kinases [4]; read-out: % Inhibition 2) was 42% and the inhibition (off-target kinases [4]; read-out: % Inhibition Avg) was 37%.
